Experimental data as given in PubChem BioAssay (NCI).
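Each compound was tested at five concentrations against cells in 96-well plates for 48 hours. GI50 marks 50% less growth. TGI marks complete inhibition of growth.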

How the values were obtained:
Assay in all cases: NCI tumour cell line growth inhibition, 48 h
SK-MEL-28 melanoma = system: SK-MEL-28 melanoma
SF-268 CNS = system: SF-268 CNS
SF-295 CNS = system: SF-295 CNS
K-562 leukemia = system: K-562 leukemia
NCI/ADR-RES ovarian = system: NCI/ADR-RES ovarian
HCT-116 colon = system: HCT-116 colon
SF-539 CNS = system: SF-539 CNS
A549 NSCLC = system: A549 NSCLC
ACHN renal = system: ACHN renal
A498 renal = system: A498 renal

Structure (SMILES)	GI50 (SK-MEL-28 melanoma) [µM]	TGI (SK-MEL-28 melanoma) [µM]	GI50 (SF-268 CNS) [µM]	TGI (SF-268 CNS) [µM]	GI50 (SF-295 CNS) [µM]	TGI (SF-295 CNS) [µM]	GI50 (K-562 leukemia) [µM]	TGI (K-562 leukemia) [µM]	GI50 (NCI/ADR-RES ovarian) [µM]	TGI (NCI/ADR-RES ovarian) [µM]	GI50 (HCT-116 colon) [µM]	TGI (HCT-116 colon) [µM]	GI50 (SF-539 CNS) [µM]	TGI (SF-539 CNS) [µM]	GI50 (A549 NSCLC) [µM]	TGI (A549 NSCLC) [µM]	GI50 (ACHN renal) [µM]	TGI (ACHN renal) [µM]	GI50 (A498 renal) [µM]	TGI (A498 renal) [µM]
O=C(O)C1CCCCC1C(=O)O.[NH-]C1CCC1.[NH2-].[Pt+2] (configuration not stated)	15.9	31.4	> 100	> 100	42.6	> 100	29.6	> 100	33.8	> 100	16.1	36.2	17	33.2	30.7	> 100	16.4	31.3		
COc1cc2c(=O)n(CCN)c3c4cc5c(cc4ccc3c2cc1OC)OCO5	2.09	6.17	0.423	2.14	0.306	4.08			1.26	3.6	0.285	1.31	0.893	2.25	0.626	2.36	0.363	1.52	1.24	2.64
CNCCn1c(=O)c2cc(OC)c(OC)cc2c2ccc3cc4c(cc3c21)OCO4	0.555	2.69	0.0888	5.52	0.0346	0.359	0.0552	5.19	0.217	3.19			0.133	0.424	0.116	0.638	0.0822	0.368	0.126	0.609
Cc1c(C(=O)NCCN2CCOCC2)cn2ncnc(Oc3ccc(NC(=O)Nc4ccc(Cl)c(C(F)(F)F)c4)cc3)c12	1.06	2.39			1.77	3.34			2.13	5.16	0.711	2.1	0.508	2.14					1.6	3.08
CCOC(=O)/C=C/C1=C(c2cccs2)c2ccccc2CC1	26.3	75	30.2	> 100	38.5	> 100	30.6	> 100	21.1	55.9	25.4	79.5			33.8	> 100	17.1	34.5	36.9	> 100
CC(=O)OCC(OC(C)=O)C(OC(C)=O)C(OC(C)=O)C(=O)CNn1c(-c2ccccc2Cl)nc2ccccc2c1=O (configuration not stated)		> 100		> 100		> 100		> 100				> 100		> 100		> 100		> 100		> 100
COc1ccc2c(c1)/C(=C\c1c(Cl)[nH]c3ccc(OC)cc13)C(=O)N2	15.9	40.4	61.2	> 100	19.9	45.8			> 100	> 100	16.3	30.6			65.1	> 100	43.3	> 100		
COC1OC(CO)C(O)C1N (configuration not stated)		> 100		> 100		> 100		> 100				> 100		> 100		> 100		> 100		> 100
CN(C)/N=C(/c1nc2ccc(Cl)cc2[nH]c1=O)C(O)c1ccc(C(O)/C(=N\N(C)C)c2nc3ccc(Cl)cc3[nH]c2=O)cc1 (configuration not stated)		> 100		> 100		> 100		> 100				> 100		> 100		> 100		> 100		> 100
Cc1cccc(C)c1NC(=O)C1C(=O)N(c2c(C)cccc2C)C(=O)/C1=N\NC(N)=S (configuration not stated)		> 100		> 100		> 100		> 100				> 100		> 100		> 100		> 100		> 100
CN1CC[C@]2(C)c3ccc(O)cc3CC3CCCC1C32C (some centres not stated)		> 100		> 100		> 100		> 100				> 100		> 100		> 100		> 100		> 100
Cc1ccc(-c2cc(-c3ccccc3)c(C#N)c(=O)n2C2OC(CO)C(O)C(O)C2O)cc1 (configuration not stated)		> 100		> 100		> 100		> 100				> 100		> 100		> 100		> 100		> 100
CCC1=NC(CO)[C@H](c2ccccc2)O1 (some centres not stated)		> 100		> 100		> 100		> 100				> 100		> 100		> 100		> 100		> 100
Cc1cccc(-n2c(=S)[nH]c3c(sc(=O)n3-c3ccccc3C)c2=O)c1		> 100		> 100		> 100		> 100				> 100		> 100		> 100		> 100		> 100
C/C(=N\N(c1ccccc1)c1ccccc1)c1c(O)cc(C)oc1=O		> 100		> 100		> 100		> 100				> 100		> 100		> 100		> 100		> 100
COc1ccc(/C=C2\CCCC(C(NO)c3ccc(OC)cc3)C2=NO)cc1 (configuration not stated)		95.3		> 100		> 100		> 100				> 100		83.3		> 100		> 100		> 100
NCCCCNc1ccc2c(=O)[nH][nH]c(=O)c2c1		> 100		> 100		> 100		> 100				> 100		> 100		> 100		> 100		> 100
CC[PH+](CC)CC.O=COC1OC([S-])C(OC=O)C(OC=O)C1OC=O.[Au+] (configuration not stated)	0.907	2.15	1.17	3.15	1.8	3.24	0.605	> 100	2.21	5.03	1.56	3.15	1.14	2.37			1.78	3.16	1.86	3.29
Cc1cc(S(=O)(=O)NC#N)c(S/C(=N\Nc2ccc([N+](=O)[O-])cc2)c2ccc(Cl)cc2)cc1Cl	31.2	> 100	26	> 100	22.7	65.5	35.3	80.3			11.2	26	13.7	28.9	52.6	> 100	34.1	> 100		2.3
